Reference: PMC5614982, “Impact of Gastric H^+/K^+-ATPase rs2733743 on the Intragastric pH-Values of Dexlansoprazole Injection in Chinese Subjects” (Frontiers in Pharmacology, 2017)
Marks after values point to notes of the source that are not given here.

Tested on: intragastric pH
Assay: 24-h intragastric pH monitoring after single intravenous dexlansoprazole in healthy Chinese subjects
Type: in vivo, human
Conditions: 30 mg iv
Protocol: Dexlansoprazole injection (30 mg per vial) used in the PK and PD study was manufactured by Nanjing Yoko Pharma Co., Ltd. (Nanjing, China). Subjects received an intravenous infusion of 20 or 30 mg dexlansoprazole injection in sterile saline solution (100 mL/h, 60 min). The study drug was administrated with an infusing pump (SA213, Lifepum, Beijing, China) and given through an intravenous catheter in the antecubital vein opposite to the one from which blood samples were taken.
An ambulatory pH recorder (Orion II, MMS, USA) with a disposable pH catheter (VersaFlex, MMS, USA) was used to monitor intragastric pH. The electrode was placed in water for at least 10 min and then calibrated using standard buffer solutions (pH 1.07 and 7.01) before intubation. Both calibration and intubation processes were conducted under the guidance of MMS Virtual Instructor Program. The catheter, trans nasally placed 10 cm under the lower esophageal sphincter, was identified by a sharp decrease in pH (Wang et al., [2010], [2011]). Subjects were intubated on baseline and the day of dosing at about 7:30 a.m., and the intragastric pH data were recorded continuously for 24 h from 8:00 a.m. Intragastric pH was sampled every second, and the data were stored in a MMS Database program (MMS, USA). The PD parameters including Median (pH), Mean (pH), TpH≥3 (%), TpH≥4 (%), TpH≥6 (%), TpH≥6, and AUC^pH−t were analyzed by the MMS Database program.
Median (pH) and mean (pH) were well-investigated in most studies, and the percentage time of pH ≥ 4 (or pH ≥ 4 holding time ratio) was the benchmark for predicting clinical efficacy of PPIs in treating acid-related diseases (Metz et al., [2009]). Novel parameter TpH≥6 (time to first gastric pH ≥ 6, min) and AUCτ 1-τ 2pH-t (area under pH-time curve from τ1 to τ2, pH·s) were defined to evaluate the velocity and extent of pharmacodynamics with more accuracy. All parameters were calculated and compared according to time periods of 0–24, 0–4, 4–10, 10–14, and 14–24 h post dosing.
The parameter AUCτ 1-τ 2pH-t was calculated as follows:
Where t represented the time duration measured by seconds, AUCτ 1-τ 210-t was the area between the pH line = 10 and the pH-time curve, which was generated by the MMS software.
Baseline-adjusted PD parameters were calculated as follows: for example, ΔAUC^pH−t = AUC^pH−t − AUC^pH−tbaseline, ΔMean (pH) = Mean (pH) − Mean (pH)^baseline, and ΔMedian (pH) = Median (pH) − Median (pH)^baseline.

[1] = CYP2C19 EMs, H+/K+-ATPase WT (n = 6), 0–4 h
[2] = CYP2C19 EMs, H+/K+-ATPase WT (n = 6), 0–24 h
[3] = CYP2C19 EMs, H+/K+-ATPase WT (n = 6), 14–24 h
[4] = H+/K+-ATPase Het (n = 10), 0–4 h

SMILES: Cc1c(OCC(F)(F)F)ccnc1C[S@@+]([O-])c1nc2ccccc2[nH]1 [dexlansoprazole]
- Mean (pH) [1]: 6.1 ± 0.5 pH
- Median (pH) [1]: 6.9 ± 0.5 pH
- TpH≥3(%) [1]: 80.8 ± 8.4%
- TpH≥4(%) [1]: 76.4 ± 9.4%
- TpH≥6(%) [1]: 66.9 ± 14.8%
- ΔMean (pH) [1]: 3.4 ± 0.7 pH
- ΔMedian (pH) [1]: 4.5 ± 0.7^b pH
- ΔTpH≥3(%) [1]: 51.7 ± 34.6%
- ΔTpH≥4 (%) [1]: 58.6 ± 15.0%
- ΔTpH≥6(%) [1]: 60.9 ± 12.6%
- Mean (pH) [2]: 5.6 ± 1.1 pH
- Median (pH) [2]: 5.8 ± 1.4 pH
- TpH≥3(%) [2]: 79.8 ± 16.2%
- TpH≥4(%) [2]: 73.1 ± 20.0%
- TpH≥6(%) [2]: 53.5 ± 23.6%
- ΔMean (pH) [2]: 2.4 ± 0.8^c pH
- ΔMedian (pH) [2]: 3.2 ± 1.0 pH
- ΔTpH≥3(%) [2]: 35.3 ± 10.3^c %
- ΔTpH≥4 (%) [2]: 41.0 ± 16.6^c %
- ΔTpH≥6(%) [2]: 43.2 ± 18.2%
- Mean (pH) [3]: 4.8 ± 1.8 pH
- Median (pH) [3]: 4.3 ± 1.7 pH
- TpH≥3(%) [3]: 62.4 ± 35.6%
- TpH≥4(%) [3]: 52.1 ± 41.3%
- TpH≥6(%) [3]: 34.4 ± 28.0%
- ΔMean (pH) [3]: 1.6 ± 0.9^c pH
- ΔMedian (pH) [3]: 2.3 ± 1.7 pH
- ΔTpH≥3(%) [3]: 38.5 ± 26.5^c %
- ΔTpH≥4 (%) [3]: 29.5 ± 29.9%
- ΔTpH≥6(%) [3]: 14.1 ± 12.6^c %
- Mean (pH) (CYP2C19 IM (n = 10), 0–4 h): 5.6 ± 2.2 pH
- Median (pH) (CYP2C19 IM (n = 10), 0–4 h): 6.2 ± 2.8 pH
- TpH≥3(%) (CYP2C19 IM (n = 10), 0–4 h): 66.9 ± 33.4%
- TpH≥4(%) (CYP2C19 IM (n = 10), 0–4 h): 63.6 ± 36.2%
- TpH≥6(%) (CYP2C19 IM (n = 10), 0–4 h): 56.6 ± 36.6%
- ΔMean (pH) (CYP2C19 IM (n = 10), 0–4 h): 3.3 ± 1.7 pH
- ΔMedian (pH) (CYP2C19 IM (n = 10), 0–4 h): 4.3 ± 2.5 pH
- ΔTpH≥3(%) (CYP2C19 IM (n = 10), 0–4 h): 56.9 ± 27.1%
- ΔTpH≥4 (%) (CYP2C19 IM (n = 10), 0–4 h): 56.2 ± 31.5%
- ΔTpH≥6(%) (CYP2C19 IM (n = 10), 0–4 h): 51.3 ± 33.5%
- Mean (pH) (CYP2C19 IM (n = 10), 0–24 h): 6.6 ± 0.9 pH
- Median (pH) (CYP2C19 IM (n = 10), 0–24 h): 7.0 ± 0.8 pH
- TpH≥3(%) (CYP2C19 IM (n = 10), 0–24 h): 89.6 ± 9.2%
- TpH≥4(%) (CYP2C19 IM (n = 10), 0–24 h): 85.7 ± 10.6%
- TpH≥6(%) (CYP2C19 IM (n = 10), 0–24 h): 67.8 ± 13.4%
- ΔMean (pH) (CYP2C19 IM (n = 10), 0–24 h): 3.7 ± 0.6 pH
- ΔMedian (pH) (CYP2C19 IM (n = 10), 0–24 h): 4.9 ± 0.8 pH
- ΔTpH≥3(%) (CYP2C19 IM (n = 10), 0–24 h): 65.3 ± 6.2%
- ΔTpH≥4 (%) (CYP2C19 IM (n = 10), 0–24 h): 70.0 ± 8.3%
- ΔTpH≥6(%) (CYP2C19 IM (n = 10), 0–24 h): 56.7 ± 6.4%
- Mean (pH) (CYP2C19 IM (n = 10), 14–24 h): 6.1 ± 0.9 pH
- Median (pH) (CYP2C19 IM (n = 10), 14–24 h): 6.2 ± 1.2 pH
- TpH≥3(%) (CYP2C19 IM (n = 10), 14–24 h): 88.9 ± 8.9%
- TpH≥4(%) (CYP2C19 IM (n = 10), 14–24 h): 80.9 ± 12.6%
- TpH≥6(%) (CYP2C19 IM (n = 10), 14–24 h): 50.7 ± 13.6%
- ΔMean (pH) (CYP2C19 IM (n = 10), 14–24 h): 2.7 ± 0.9 pH
- ΔMedian (pH) (CYP2C19 IM (n = 10), 14–24 h): 3.7 ± 0.9 pH
- ΔTpH≥3(%) (CYP2C19 IM (n = 10), 14–24 h): 60.8 ± 19.5%
- ΔTpH≥4 (%) (CYP2C19 IM (n = 10), 14–24 h): 55.6 ± 17.3%
- ΔTpH≥6(%) (CYP2C19 IM (n = 10), 14–24 h): 27.8 ± 14.7^c %
- Mean (pH) (CYP2C19 PM (n = 7), 0–4 h): 5.2 ± 1.1 pH
- Median (pH) (CYP2C19 PM (n = 7), 0–4 h): 5.9 ± 1.8 pH
- TpH≥3(%) (CYP2C19 PM (n = 7), 0–4 h): 73.7 ± 10.5%
- TpH≥4(%) (CYP2C19 PM (n = 7), 0–4 h): 64.8 ± 15.2%
- TpH≥6(%) (CYP2C19 PM (n = 7), 0–4 h): 47.7 ± 24.1%
- ΔMean (pH) (CYP2C19 PM (n = 7), 0–4 h): 3.5 ± 0.9 pH
- ΔMedian (pH) (CYP2C19 PM (n = 7), 0–4 h): 4.2 ± 1.8 pH
- ΔTpH≥3(%) (CYP2C19 PM (n = 7), 0–4 h): 69.8 ± 9.5%
- ΔTpH≥4 (%) (CYP2C19 PM (n = 7), 0–4 h): 63.2 ± 13.7%
- ΔTpH≥6(%) (CYP2C19 PM (n = 7), 0–4 h): 47.3 ± 23.7%
- Mean (pH) (CYP2C19 PM (n = 7), 0–24 h): 6.5 ± 1.1 pH
- Median (pH) (CYP2C19 PM (n = 7), 0–24 h): 6.7 ± 1.2 pH
- TpH≥3(%) (CYP2C19 PM (n = 7), 0–24 h): 89.0 ± 13.3%
- TpH≥4(%) (CYP2C19 PM (n = 7), 0–24 h): 85.0 ± 16.4%
- TpH≥6(%) (CYP2C19 PM (n = 7), 0–24 h): 72.2 ± 19.8%
- ΔMean (pH) (CYP2C19 PM (n = 7), 0–24 h): 4.1 ± 1.1^a pH
- ΔMedian (pH) (CYP2C19 PM (n = 7), 0–24 h): 4.8 ± 1.2 pH
- ΔTpH≥3(%) (CYP2C19 PM (n = 7), 0–24 h): 68.6 ± 15.3^a %
- ΔTpH≥4 (%) (CYP2C19 PM (n = 7), 0–24 h): 74.6 ± 16.6^a %
- ΔTpH≥6(%) (CYP2C19 PM (n = 7), 0–24 h): 68.8 ± 17.9^a %
- Mean (pH) (CYP2C19 PM (n = 7), 14–24 h): 6.1 ± 1.4 pH
- Median (pH) (CYP2C19 PM (n = 7), 14–24 h): 5.9 ± 2.0 pH
- TpH≥3(%) (CYP2C19 PM (n = 7), 14–24 h): 87.3 ± 22.7%
- TpH≥4(%) (CYP2C19 PM (n = 7), 14–24 h): 82.9 ± 26.0%
- TpH≥6(%) (CYP2C19 PM (n = 7), 14–24 h): 64.4 ± 25.6^a %
- ΔMean (pH) (CYP2C19 PM (n = 7), 14–24 h): 3.8 ± 1.3^a pH
- ΔMedian (pH) (CYP2C19 PM (n = 7), 14–24 h): 4.1 ± 1.9^a pH
- ΔTpH≥3(%) (CYP2C19 PM (n = 7), 14–24 h): 76.9 ± 20.0^a %
- ΔTpH≥4 (%) (CYP2C19 PM (n = 7), 14–24 h): 75.9 ± 22.4^a %
- ΔTpH≥6(%) (CYP2C19 PM (n = 7), 14–24 h): 59.0 ± 24.6^a^,^b %
- Mean (pH) [4]: 5.3 ± 2.0 pH
- Median (pH) [4]: 5.5 ± 2.5 pH
- TpH≥3(%) [4]: 70.6 ± 25.1%
- TpH≥4(%) [4]: 64.8 ± 28.6%
- TpH≥6(%) [4]: 50.5 ± 38.4%
- ΔMean (pH) [4]: 3.0 ± 1.2 pH
